In ChEMBL document CHEMBL1614630, “Extrapolation of preclinical pharmacokinetics and molecular feature analysis of "discovery-like" molecules to predict human pharmacokinetics” (Drug Metab Dispos, 2006):

Experiments:
[1] = Clearance in dog after iv administration; conditions: in vivo
[2] = Volume of distribution at steady state in monkey after iv administration; conditions: macaca, in vivo
[3] = Volume of distribution at steady state in human after iv administration; conditions: in vivo
[4] = Volume of distribution at steady state in dog after iv administration; conditions: in vivo
[5] = Clearance in rat after iv administration; conditions: in vivo
[6] = Volume of distribution at steady state in rat after iv administration; conditions: in vivo
[7] = Clearance in monkey after iv administration; conditions: macaca, in vivo
[8] = Clearance in human after iv administration; conditions: in vivo

Row | SMILES | clearance [1] [mL/min/kg] | Vd [2] [L/kg] | Vd [3] [L/kg] | Vd [4] [L/kg] | clearance [5] [mL/min/kg] | Vdss [6] [L/kg] | clearance [7] [mL/min/kg] | clearance [8] [mL/min/kg]
1 | CC1COc2c(N3CCN(C)CC3)c(F)cc3c(=O)c(C(=O)O)cn1c23 (stereo not given) [OFLOXACIN] | 2.65 | 1.6 | 1.78 | 1.15 | 26.3 | 1.66 | 7.5 | 4.53
2 | CCN1CCC[C@H]1CNC(=O)c1c(OC)ccc(Br)c1OC [REMOXIPRIDE] | 4.9 | 1.1 | 0.7 | 1.6 | 170 | 4.5 | 11.8 | 1.7
3 | CCOc1cc(Cc2cnc(N)nc2N)cc(OCC)c1-n1cccc1 [EPIROPRIM] | 10.7 | 5.1 | 2.5 | 8.3 | 45 | 4.6 | 30.6 | 3.5
4 | CCCN1CCC[C@@H](c2cccc(S(C)(=O)=O)c2)C1 | 36.7 | 1.4 | 2.2 | 2.5 | 46.7 | 1.5 | 33.3 | 7.2
5 | O=C(CCCN1CCC(O)(c2ccc(Cl)cc2)CC1)c1ccc(F)cc1 [HALOPERIDOL] |  | 6.6 |  | 37 |  | 10.4 |  | 
6 | OC(CCN1CCCCC1)(c1ccccc1)C1CC2C=CC1C2 (stereo not given) [BIPERIDEN] | 27 | 3.6 | 6.2 | 9.5 |  | 14 | 21.9 | 15.3
7 | CN(C)CCCN1c2ccccc2Sc2ccc(Cl)cc21 [CHLORPROMAZINE] | 53 | 8 | 11.2 | 16.3 | 61 | 29.1 | 24.6 | 4.3
8 | COC(=O)C1=C(C)NC(C)=C(C(=O)OC)C1c1ccccc1[N+](=O)[O-] [NIFEDIPINE] |  | 0.5 |  | 1.15 |  | 0.13 |  | 
9 | COc1ccc(Cl)cc1[C@]1(F)C(=O)Nc2cc(C(F)(F)F)ccc21 [FLINDOKALNER] | 3.1 | 5.4 | 2.35 | 3.2 | 29.9 | 3.4 | 40.2 | 7.63
10 | CCC1=C[C@@H]2CN(C1)Cc1c([nH]c3ccccc13)[C@@](C(=O)OC)(c1cc3c(cc1OC)N(C)[C@H]1[C@@](O)(C(=O)OC)[C@H](OC(C)=O)[C@]4(CC)C=CCN5CC[C@]31[C@@H]54)C2 [VINORELBINE] | 20 | 11.4 | 75.6 | 49.6 | 31.7 | 24.4 | 23.6 | 21
11 | C[C@H]1NCc2cc(-c3ccc4c(=O)c(C(=O)O)cn(C5CC5)c4c3OC(F)F)ccc21 [GARENOXACIN] | 2.4 | 1 | 1 | 1.3 | 12.1 | 0.9 | 3.4 | 1.2
12 | CC#C[C@]1(O)CC[C@H]2[C@@H]3CCC4=CC(=O)CCC4=C3[C@@H](c3ccc(N(C)C)cc3)C[C@@]21C [MIFEPRISTONE] | 15.6 | 32.5 | 0.3 | 10.5 | 50 | 4.3 | 24.2 | 0.33
13 | Cc1cc(C)c(/C=C2\C(=O)Nc3ccccc32)[nH]1 [SEMAXANIB] | 52 | 1.45 | 0.98 | 1.4 | 45 | 1.6 | 25.7 | 14
14 | COc1ccc([C@@H]2Sc3ccccc3N(CCN(C)C)C(=O)[C@@H]2OC(C)=O)cc1 [DILTIAZEM] | 59 | 3.5 |  | 21.4 | 82.3 | 3.6 | 34.5 | 12
15 | COc1ccc([C@H](CC(=O)O)N2CCN(CCCc3ccc4c(n3)NCCC4)C2=O)cn1 | 5.4 | 0.3 | 0.2 | 0.9 |  | 1.5 | 9 | 1
16 | Cc1ncc2n1-c1ccc(Cl)cc1C(c1ccccc1F)=NC2 [MIDAZOLAM] | 27 | 1.5 | 1.1 | 3 | 67 | 1.6 | 24.2 | 6.6
